System: Plasmodium berghei
Test: Luciferase/luciferin-expressing antifolate-resistant parasites were used to infect a culture of HepG2 cells that were pre-incubated with compounds. Infected hepatocytes emit light due to the luciferase reaction. Assay results are presented as the percent inhibition of light emission compared to control. […]
Format: functional
Details: sporozoite; for IC90: read-out: LUCIFERASE INFECTION ASSAY - IC90
[1] = read-out: LUCIFERASE INFECTION ASSAY - IC50

| SMILES | IC90 | IC50 [1] | other results |
| --- | --- | --- | --- |
| Cc1ccc(Nc2cc(C(C)C)c(OS(=O)(=O)c3ccc(C)cc3)c(C(C)C)c2)cc1 | 9.61 µM |  | IC50 (HEPG2TOX_HILL_SLOPE 1.43, HEPG2TOX_R_SQUARED 0.724, PBLUC_HILL_SLOPE 19.9, PBLUC_R_SQUARED 0.613, read-out: LUCIFERASE INFECTION ASSAY - IC50): 8.6 µM |
| CCc1cc2c(Nc3ccc4c(c3)OCO4)nc(C)nc2s1 | > 10 µM |  | IC50 (PBLUC_HILL_SLOPE 2.79, PBLUC_R_SQUARED 0.532, read-out: LUCIFERASE INFECTION ASSAY - IC50): 6.73 µM |
| NS(=O)(=O)c1ccc(CCNc2nn3c(-c4cccs4)cnc3s2)cc1 | > 8.14 µM |  | IC50 (HEPG2TOX_HILL_SLOPE 6.48, HEPG2TOX_R_SQUARED 0.0577, read-out: LUCIFERASE INFECTION ASSAY - IC50): > 8.14 µM |
| C[C@]12CC[C@H](O)C[C@H]1CCC1C2CC[C@]2(C)[C@@H](C3=CC(=O)OC3)CC[C@]12O (stereo not given in full) | 0.225 µM |  | IC50 (HEPG2TOX_HILL_SLOPE 2.19, HEPG2TOX_R_SQUARED 0.915, PBLUC_HILL_SLOPE 1.64, PBLUC_R_SQUARED 0.798, read-out: LUCIFERASE INFECTION ASSAY - IC50): 0.0591 µM |
| CC(C)c1cccc(NC(=O)COc2ccc(S(N)(=O)=O)cc2[N+](=O)[O-])c1 | > 10 µM | > 10 µM |  |
| CCCOc1ccc(C(F)(F)F)cc1NC(=O)c1nc2nccc(C)n2n1 | 3 µM |  | IC50 (PBLUC_HILL_SLOPE 0.895, PBLUC_R_SQUARED 0.844, read-out: LUCIFERASE INFECTION ASSAY - IC50): 0.258 µM |
| CCCc1cc(=O)n2ncc(-c3ccc(Cl)cc3)c2[nH]1 | 3.65 µM |  | IC50 (HEPG2TOX_HILL_SLOPE 1.31, HEPG2TOX_R_SQUARED 0.875, PBLUC_HILL_SLOPE 1.68, PBLUC_R_SQUARED 0.622, read-out: LUCIFERASE INFECTION ASSAY - IC50): 0.989 µM |
| O=C1C(=O)N(CCN2CCOCC2)c2ccc(F)cc21 | > 11.9 µM |  | IC50 (PBLUC_HILL_SLOPE 4.75, PBLUC_R_SQUARED 0.191, read-out: LUCIFERASE INFECTION ASSAY - IC50): 10.9 µM |
| CCN(CC)S(=O)(=O)c1ccc(/C=C/C(=O)N2CC=C(c3ccccc3)CC2)cc1 | > 10 µM | > 10 µM |  |
| CCN(CC)C(CNC(=O)c1ccc2c(c1)OCC(=O)N2)c1ccccc1Cl (stereo not given) | 8.02 µM |  | IC50 (PBLUC_HILL_SLOPE 4.94, PBLUC_R_SQUARED 0.519, read-out: LUCIFERASE INFECTION ASSAY - IC50): 5.14 µM |
| COc1ccc(C(=O)Nc2nonc2-c2ccc(F)cc2)cc1Cl | 3.66 µM | 3.16 µM |  |
| OCc1cccc(-c2cnc3ccc(-c4cccc(F)c4)nn23)c1 | 4.21 µM | 3.42 µM |  |
| CC(=O)N1CCc2cc(C(=O)C(C)OC(=O)/C(=C/c3ccc(F)cc3)c3cccs3)ccc21 (stereo not given) | > 10 µM | 7.08 µM |  |
| COc1ccc(NCC2(c3ccnc(-c4ccccc4Cl)c3)CC2)cn1 | > 10 µM |  | IC50 (HEPG2TOX_HILL_SLOPE 2.53, HEPG2TOX_R_SQUARED 0.891, PBLUC_HILL_SLOPE 5.38, PBLUC_R_SQUARED 0.384, read-out: LUCIFERASE INFECTION ASSAY - IC50): 7.39 µM |
| Cc1nc(N2CCN(Cc3ccccc3)CC2)nc2c1C(=O)CC(C)C2 (stereo not given) | > 9.42 µM | > 9.42 µM |  |
| CCCn1c(SCC2=C(C(=O)OCC)C(C)NC(=O)N2)nc2sc3c(c2c1=O)CCC(C(C)(C)CC)C3 (stereo not given) | > 10 µM | > 10 µM |  |
| c1cncc(-c2cnc3sc(NCc4ccncc4)nn23)c1 | > 10.7 µM |  | IC50 (PBLUC_HILL_SLOPE 12.5, PBLUC_R_SQUARED 0.401, read-out: LUCIFERASE INFECTION ASSAY - IC50): 10.1 µM |
| CCNC(=S)NNC(=O)/C=C/c1ccccc1OC | > 10 µM |  | IC50 (FFLUC_HILL_SLOPE 0.401, FFLUC_R_SQUARED 0.162, HEPG2TOX_HILL_SLOPE 12.3, HEPG2TOX_R_SQUARED 0.97, read-out: LUCIFERASE INFECTION ASSAY - IC50): > 10 µM |
| COc1cc(NC(=O)Nc2ccc3nc(Cc4ccccc4)nn3c2)cc(OC)c1OC | 4.31 µM |  | IC50 (PBLUC_HILL_SLOPE 20.6, PBLUC_R_SQUARED 0.32, read-out: LUCIFERASE INFECTION ASSAY - IC50): 3.87 µM |
| CC(=O)N1CCc2cc(NC(=O)c3cc(C)n(C4CCCCC4)c3C)ccc21 | 0.349 µM |  | IC50 (PBLUC_HILL_SLOPE 2.13, PBLUC_R_SQUARED 0.772, read-out: LUCIFERASE INFECTION ASSAY - IC50): 0.125 µM |
| CSCC[C@H](NC(=O)CCN(c1cc(C)cc(C)c1)S(=O)(=O)c1ccc(Cl)cc1)c1nc2ccccc2[nH]1 | > 10 µM |  | IC50 (HEPG2TOX_HILL_SLOPE 1.18, HEPG2TOX_R_SQUARED 0.616, PBLUC_HILL_SLOPE 8.87, PBLUC_R_SQUARED 0.619, read-out: LUCIFERASE INFECTION ASSAY - IC50): 8.36 µM |
| COc1ccccc1-n1c(SCC(=O)c2c[nH]c3ccccc23)nnc1-c1cccs1 | 0.134 µM |  | IC50 (PBLUC_HILL_SLOPE 12.6, PBLUC_R_SQUARED 0.859, read-out: LUCIFERASE INFECTION ASSAY - IC50): 0.113 µM |
| O=C(/C=C/c1ccccc1[N+](=O)[O-])c1cccc(C(F)(F)F)c1 | 5.08 µM | 4.89 µM |  |

| SMILES | IC90 | IC50 [1] | other results |
| --- | --- | --- | --- |
| CC(C)c1ccc(NC(=O)Nc2nc(C(N)C3CCCCC3)cs2)cc1 (stereo not given) | > 8.86 µM |  | IC50 (PBLUC_HILL_SLOPE 7.05, PBLUC_R_SQUARED 0.602, read-out: LUCIFERASE INFECTION ASSAY - IC50): 7.75 µM |
| C#CCNS(=O)(=O)c1cccc(C(=O)Nc2nc(C)c(C)s2)c1 | > 10 µM | > 10 µM |  |
| C=CCn1c(C)cc(C(=O)CSc2nc3ccccc3s2)c1C | 0.221 µM |  | IC50 (PBLUC_HILL_SLOPE 3.3, PBLUC_R_SQUARED 0.342, read-out: LUCIFERASE INFECTION ASSAY - IC50): 0.113 µM |
| CCOc1ccc(OCC)c(NC(=O)/C=C/c2c(C)nn(-c3ccccc3)c2C)c1 | > 10 µM | 9.19 µM |  |
| COc1cc(OC)c(NC(=O)CN2CCN(Cc3csc4ccccc34)CC2)cc1Cl | 9.45 µM |  | IC50 (HEPG2TOX_HILL_SLOPE 1.28, HEPG2TOX_R_SQUARED 0.885, PBLUC_HILL_SLOPE 11.3, PBLUC_R_SQUARED 0.661, read-out: LUCIFERASE INFECTION ASSAY - IC50): 7.79 µM |
| CCc1cc(=O)n2nc(-c3ccccc3)c(-c3ccccc3)c2[nH]1 | > 10.5 µM |  | IC50 (HEPG2TOX_HILL_SLOPE 1.41, HEPG2TOX_R_SQUARED 0.964, PBLUC_HILL_SLOPE 4.43, PBLUC_R_SQUARED 0.223, read-out: LUCIFERASE INFECTION ASSAY - IC50): 7.37 µM |
| N#Cc1c(Cl)cccc1N1CCC(C#N)CC1 | > 13.4 µM |  | IC50 (HEPG2TOX_HILL_SLOPE 0.959, HEPG2TOX_R_SQUARED 0.904, PBLUC_HILL_SLOPE 1.25, PBLUC_R_SQUARED 0.0637, read-out: LUCIFERASE INFECTION ASSAY - IC50): 6.33 µM |
| O=C(Nc1ncccc1O)c1ccc(-c2ccccc2)cc1 | 8 µM | 4.59 µM |  |
| COc1ccc(C(=O)NNC(=O)c2nn(-c3ccccc3)cc2O)c(OC)c1OC | 2.77 µM |  | IC50 (HEPG2TOX_HILL_SLOPE 0.737, HEPG2TOX_R_SQUARED 0.981, PBLUC_HILL_SLOPE 4.06, PBLUC_R_SQUARED 0.568, read-out: LUCIFERASE INFECTION ASSAY - IC50): 1.61 µM |
| COc1ccc(Cc2nccc3cc(OC)c(OC)cc23)cc1OC [PAPAVERINE] | > 8.78 µM | > 8.78 µM |  |
| CC(Oc1ccc(Cl)cc1)C(=O)Nc1sccc1C(N)=O (stereo not given) | 4.27 µM |  | IC50 (PBLUC_HILL_SLOPE 15.8, PBLUC_R_SQUARED 0.448, read-out: LUCIFERASE INFECTION ASSAY - IC50): 3.72 µM |
| Cc1ccc(C(=N)NOC(=O)c2cccc(Cn3cc(C(F)(F)F)ccc3=O)c2)cc1 | > 7.69 µM | > 7.69 µM |  |
| O=C(Nc1ccccc1C(=O)Nc1nc2ccccc2[nH]1)c1cccs1 | > 10 µM |  | IC50 (HEPG2TOX_HILL_SLOPE 2.23, HEPG2TOX_R_SQUARED 0.95, read-out: LUCIFERASE INFECTION ASSAY - IC50): > 10 µM |
| Cc1ccc(-n2nnnc2SCc2nc(-c3ccc(C)c(F)c3)no2)c(C)c1 | > 10 µM | > 10 µM |  |
| CC(=O)c1cccc(-c2cnc3cnc(-c4ccc(CO)cc4)cn23)c1 | > 9.61 µM |  | IC50 (PBLUC_HILL_SLOPE 6.05, PBLUC_R_SQUARED 0.635, read-out: LUCIFERASE INFECTION ASSAY - IC50): 7.62 µM |
| COc1cc(Cl)c(C)cc1-n1c(Sc2ccc([N+](=O)[O-])c(C(F)(F)F)c2)nc2ccccc2c1=O | > 10 µM |  | IC50 (FFLUC_HILL_SLOPE 1.25, FFLUC_R_SQUARED 0.54, HEPG2TOX_HILL_SLOPE 0.668, HEPG2TOX_R_SQUARED 0.6, PBLUC_HILL_SLOPE 3.18, PBLUC_R_SQUARED 0.355, read-out: LUCIFERASE INFECTION ASSAY - IC50): 6.33 µM |
| CC(C)c1ccc(NC(=O)C2=CN3CCN(Cc4ccc(F)cc4)C(=O)N=C3O2)cc1 | > 10 µM | > 10 µM |  |
| CCOC(=O)NC(=O)COC(=O)CCc1ccc(OC)cc1 | > 10 µM | > 10 µM |  |
| FC(F)(F)Oc1ccc(-c2cnc3ccc(NCc4ccccn4)nn23)cc1 | 1.24 µM |  | IC50 (HEPG2TOX_HILL_SLOPE 11.3, HEPG2TOX_R_SQUARED 0.834, PBLUC_HILL_SLOPE 11.1, PBLUC_R_SQUARED 0.439, read-out: LUCIFERASE INFECTION ASSAY - IC50): 1.02 µM |
| COc1ccc(C(=O)CSC2=NCCCC2)cc1 | > 9.59 µM | > 9.59 µM |  |
| CC1CN(c2nc(N)c3c(N)nc4c(c3c2C#N)CC(=O)N4C2CCCC2)CC(C)O1 (stereo not given) | > 10 µM | > 10 µM |  |
| CCc1nn2c(=O)cc(CSc3ccc(C)cc3)[nH]c2c1-c1ccc(F)cc1 | 2.98 µM |  | IC50 (FFLUC_HILL_SLOPE 2.56, FFLUC_R_SQUARED 0.75, PBLUC_HILL_SLOPE 10.5, PBLUC_R_SQUARED 0.512, read-out: LUCIFERASE INFECTION ASSAY - IC50): 2.42 µM |
